Measurements as given in publication PMC7115530 (European Journal of Medicinal Chemistry, 2012).

Target: SARS-CoV 3CL^pro (Severe acute respiratory syndrome coronavirus, UniProt P0C6X7)
Assay type: biochemical

CC(C)C[C@H](NC(=O)[C@@H](NC(=O)[C@H](C)NC(=O)OCc1ccccc1)C(C)C)C(=O)N[C@H](C#N)CCC(N)=O [Cbz-AVLQ-CN]
increase in potency over the other inhibitors tested: ~10 fold
